Test results taken from paper PMC8154156 (ACS Omega, 2021).

Legend:
T5 exonuclease (T5E) [1] = molecular target: T1, T5 exonuclease (T5E) (Escherichia phage T5, UniProt P06229); assay: agarose gel, degradation of; type: biochemical; conditions: high nucleotide concentrations
T1 sequence (P06229 2-291): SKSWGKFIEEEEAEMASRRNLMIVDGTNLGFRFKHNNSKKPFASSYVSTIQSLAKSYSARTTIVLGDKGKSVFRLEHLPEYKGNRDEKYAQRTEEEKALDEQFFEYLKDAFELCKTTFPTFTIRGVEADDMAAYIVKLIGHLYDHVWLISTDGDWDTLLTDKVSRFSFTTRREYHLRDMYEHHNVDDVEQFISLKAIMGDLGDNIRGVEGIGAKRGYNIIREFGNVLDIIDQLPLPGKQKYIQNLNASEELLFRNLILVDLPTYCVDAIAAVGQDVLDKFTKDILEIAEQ

[2] = molecular target: T2, E. coli DNA topoisomerase I (EcTopI) (Escherichia coli, UniProt P06612); assay: agarose gel DNA relaxation assay; type: biochemical
T2 sequence (P06612 1-865): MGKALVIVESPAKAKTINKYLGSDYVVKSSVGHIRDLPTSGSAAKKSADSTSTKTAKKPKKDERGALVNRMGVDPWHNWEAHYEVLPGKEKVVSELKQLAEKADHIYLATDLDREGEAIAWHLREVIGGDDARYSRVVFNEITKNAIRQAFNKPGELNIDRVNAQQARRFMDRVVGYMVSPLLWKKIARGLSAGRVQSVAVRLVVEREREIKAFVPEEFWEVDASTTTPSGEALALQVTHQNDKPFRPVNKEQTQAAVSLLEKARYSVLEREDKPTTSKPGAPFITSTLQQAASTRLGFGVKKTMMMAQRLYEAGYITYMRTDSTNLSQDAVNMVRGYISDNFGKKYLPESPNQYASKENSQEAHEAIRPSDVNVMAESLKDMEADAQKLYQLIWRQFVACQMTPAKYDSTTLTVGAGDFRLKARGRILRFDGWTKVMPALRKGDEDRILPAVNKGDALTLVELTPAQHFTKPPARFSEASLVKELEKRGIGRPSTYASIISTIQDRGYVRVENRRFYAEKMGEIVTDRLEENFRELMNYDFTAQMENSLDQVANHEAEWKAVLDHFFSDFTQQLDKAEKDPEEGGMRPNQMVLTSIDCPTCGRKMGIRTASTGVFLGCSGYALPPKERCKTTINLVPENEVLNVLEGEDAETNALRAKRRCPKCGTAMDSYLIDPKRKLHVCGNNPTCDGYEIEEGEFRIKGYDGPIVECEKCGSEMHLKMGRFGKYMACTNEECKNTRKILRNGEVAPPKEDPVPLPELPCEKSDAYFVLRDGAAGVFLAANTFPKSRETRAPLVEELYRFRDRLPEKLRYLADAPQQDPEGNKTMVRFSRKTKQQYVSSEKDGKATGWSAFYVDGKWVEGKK

T5 exonuclease (T5E) [3] = molecular target: T1, T5 exonuclease (T5E); assay: flap endonuclease activity assay; type: biochemical
[4] = molecular target: variola DNA topoisomerase I (vTopI) (Variola virus human/India/Ind3/1967, UniProt P32989)
Sequence of variola DNA topoisomerase I (vTopI) (P32989 whole entry, looked up): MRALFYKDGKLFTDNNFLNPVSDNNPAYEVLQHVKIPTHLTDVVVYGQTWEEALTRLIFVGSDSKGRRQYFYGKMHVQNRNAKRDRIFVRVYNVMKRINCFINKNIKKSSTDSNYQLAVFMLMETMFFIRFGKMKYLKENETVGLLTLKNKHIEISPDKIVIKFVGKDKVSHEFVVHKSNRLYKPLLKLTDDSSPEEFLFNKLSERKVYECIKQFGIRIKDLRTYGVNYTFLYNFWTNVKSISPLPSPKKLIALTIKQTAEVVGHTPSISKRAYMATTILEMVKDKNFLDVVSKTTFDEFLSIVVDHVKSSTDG

Compound | agarose gel, degradation of (-) sc pAB1 (T5 exonuclease (T5E) [1]) | other results
O=c1ccn([C@@H]2O[C@H](COP(=O)(O)OP(=O)(O)OP(=O)(O)O)[C@@H](O)[C@H]2O)c(=O)[nH]1 [UTP] | high concentrations of ATP, GTP, CTP, and UTP inhibited the degradation of (−) sc pAB1 | 
Nc1nc2c(ncn2[C@@H]2O[C@H](COP(=O)(O)OP(=O)(O)OP(=O)(O)O)[C@@H](O)[C@H]2O)c(=O)[nH]1 [GTP] | high concentrations of ATP, GTP, CTP, and UTP inhibited the degradation of (−) sc pAB1 | 
Nc1ncnc2c1ncn2[C@@H]1O[C@H](COP(=O)(O)OP(=O)(O)OP(=O)(O)O)[C@@H](O)[C@H]1O [ATP] | high concentrations of ATP, GTP, CTP, and UTP inhibited the degradation of (−) sc pAB1 | 
O=C1C=C(NCCc2cc(Br)c(O)c(Br)c2)C(=O)c2ncccc21 [NSC668394] |  | IC50 [2]: 8 ± 0.2 µM
Nc1ccn([C@@H]2O[C@H](COP(=O)(O)OP(=O)(O)OP(=O)(O)O)[C@@H](O)[C@H]2O)c(=O)n1 [CTP] | high concentrations of ATP, GTP, CTP, and UTP inhibited the degradation of (−) sc pAB1 | 
Cc1ccc(C(=O)Nc2ccc(S(=O)(=O)O)c3cc(S(=O)(=O)O)cc(S(=O)(=O)O)c23)cc1NC(=O)c1cccc(NC(=O)Nc2cccc(C(=O)Nc3cc(C(=O)Nc4ccc(S(=O)(=O)O)c5cc(S(=O)(=O)O)cc(S(=O)(=O)O)c45)ccc3C)c2)c1 [suramin] |  | IC50 (T5 exonuclease (T5E) [3]): 22.6 µM; T5 exonuclease-based fluorescence HTS at 20 μM [4]: The only positive hit is the polynegatively charged suramin (Figure S6b)
